Data as given in US11020360B2, “Methods, compounds, compositions and vehicles for delivering 3-amino-1-propanesulfonic acid” (Bellus Health, Inc., priority 2006, dated 2021).
Values joined by “and” are separate entries in the source; they are usually repeats but may differ in a detail not shown here. Identical values can stand only once.

Columns and labels:
[1] = Bioavailability of exemplary compounds in mice (3APS quantified in plasma); format: in vivo; settings: mouse, oral, 3APS in plasma
Method: Selected exemplary compounds were tested for bioavailability in mice. Bioavailability estimates are performed for 3APS after administration of molar equivalent the selected compounds. […] The animals are anesthetized with isoflurane before blood collection (approximately 45 sec). Samples are collected at 5, 30, 60, 120, 180, 240 and 360 min post intravenous administration and at 15, 30, 60, 120, 180, 240 and 360 min post oral administration. One animal is used to obtain a baseline sample (pre-dose sample). Blood samples are collected into Sarstedt™ micro tubes (EDTA KE/1.3 ml), kept on ice until centrifugation at 4° C. at a minimum speed of 3000 rpm (1620 G) for 10 min. Plasma samples are transferred into Eppendorf™ tubes, immediately placed on dry ice and stored at −80° C. Plasma samples are stored frozen at […] pending analysis.
Compounds in mouse plasma are extracted using protein precipitation. Quantitation of 3APS in mouse plasma matrix is achieved using LC-MS detection. Sample concentration is calculated using a calibration curve.

[2] = Single oral and IV administration of 14C-3APS to rats; format: in vivo, male Sprague-Dawley rats; settings: for AUC0-∞ / AUC(0-inf): 100 mg/kg 14C-3APS, rats, 100 mg/kg; for AUC(0-inf): male, Sprague-Dawley, rat, plasma
Method: The purpose of this study was to investigate the absorption, metabolism and excretion profiles of ^14C-3APS following a single intravenous bolus and oral administration to rats. Thirty-six male Sprague-Dawley rats received a single 100 mg/kg (˜50 μCi/animal) dose of ^14C-3APS by an IV bolus injection (water or isotonic saline solution) and an additional 36 male rats received the same dose level by oral gavage (in water). Blood, urine, feces, brain and CSF samples were collected for up to 72 hr following dose administration. Plasma, urine, brain and CSF concentrations of 3APS and 2-carboxyethanesulfonic acid (3APS major metabolite) were measured using LC and MS/MS detection method. Plasma, urine, feces, brain and CSF samples were analyzed for total radioactivity using appropriate sample preparation procedures and scintillation counting.

[3] = Metabolic profiling of 14C-3APS in rats; format: in vivo, male Sprague-Dawley rats
Method: (§1) Three single dose studies were conducted in mice, rats and dogs to determine the metabolic profile of ^14C-3APS in plasma, urine and feces. In the first study, twenty-seven male CD-1 mice received a single dose of 100 mg/kg (20 μCi/animal) of ^14C-3APS by oral gavage. Blood samples (3 animals/time point) were collected for 12 hr following drug administration while urine and feces (3 animals/time point) samples were collected for 96 hr. In the second study, eight male Sprague-Dawley rats received a single dose of 100 mg/kg (50 μCi/animal) of ^14C-3APS by oral gavage while in the third study, three male Beagle dogs received a single dose of 100 mg/kg (30 μCi/kg) of ^14C-3APS by oral gavage. For the rat and dog studies, blood samples were collected for 24 hr following drug administration while urine and feces samples were collected for 72 hr. All samples were analyzed for total radioactivity using appropriate sample preparation procedures and scintillation counting. Plasma and urine samples were also analyzed for 3APS and 3APS metabolites (2-carboxyethanesulfonic acid, 3-hydroxy-1-propanesulfonic acid and 3-acetylamino-1-propanesulfonic acid) concentrations using qualified HPLC and MS/MS methods.

[4] = test system: organotypic hippocampal slice culture; experiment: In vitro metabolism of 3APS in organotypic hippocampal slice culture; format: in vitro ADME; settings: 3-day incubation in the culture media
Method: (§2) In another in vitro model employing organotypic hippocampal slice culture, the conversion of 3APS to 2-carboxyethanesulfonic acid was time-dependent. More than 60% of 3APS was converted to 2-carboxyethanesulfonic acid after 3-day incubation in the culture media. 2-carboxyethanesulfonic acid was also detected after incubation of 3APS in human hepatocyte (HepG2) culture media.

[5] = test system: human hepatocyte (HepG2); experiment: Incubation of 3APS in human hepatocyte (HepG2) culture media; format: in vitro ADME; settings: after incubation of 3APS in HepG2 culture media
Method: as §2

[6] = Metabolic profiling of 14C-3APS in mice; format: in vivo, male CD-1 mice; settings: Mouse plasma
Method: as §1

[7] = Previous metabolic stability studies of 3APS; format: in vitro ADME
Source text: Those studies include: 3APS metabolic stability in pooled human hepatocytes, human, rat and dog liver microsomes, human intestinal microflora, pooled human liver cytosol, and human arylamine N-acetyltransferase (See Examples 4 and 5).

[8] = Single oral, intravenous and portal administration of 3APS in rats; format: in vivo, male Sprague-Dawley rats
Method: The purpose of this study was to compare the pharmacokinetic profile of 3APS following a single dose administration either orally, intravenously or into the portal vein to male Sprague-Dawley rats. The oral, intravenous and portal routes of administration were selected to determine the intestinal and hepatic first-pass effects in the rat. Three groups of 4 male Sprague-Dawley rats were assigned to receive a single dose of 250 mg/kg 3APS by different routes of administration. One group received 3APS as an IV bolus administration (in water or isotonic saline solution), one group by oral gavage (in water) and the last group via a catheter into the portal vein (in water or isotonic saline solution). Blood samples were collected for 24 hours following dose administration. Plasma concentrations of 3APS and 2-carboxyethanesulfonic acid (the major metabolite of 3APS) were determined using LC and MS/MS method.

[9] = Metabolic profiling of 14C-3APS in dogs; format: in vivo, male Beagle dogs; settings: Dog plasma
Method: as §1

[10] = Absorption, excretion and plasma kinetics of 14C-3APS in humans; format: in vivo, human
Source text: Following the identification of 3APS metabolites, plasma and urine samples from this human AME study were reanalyzed for 3APS and 3APS metabolite (2-carboxyethanesulfonic acid, 3-hydroxy-1-propanesulfonic acid and 3-acetylamino-1-propanesulfonic acid) concentrations using qualified HPLC and MS/MS methods to determine the metabolic profile of ^14C-3APS in human.

[11] = Rat plasma, analyte after single oral 100 mg/kg 14C-3APS
[12] = male, Sprague-Dawley, rat, plasma, po, 100 mg/kg, Rat plasma, analyte after single oral 100 mg/kg 14C-3APS
[13] = analyte after single oral 100 mg/kg 14C-3APS
[14] = male, CD-1, mouse, plasma, po, 100 mg/kg, analyte after single oral 100 mg/kg 14C-3APS
[15] = male, Beagle, dog, plasma, po, 100 mg/kg, analyte after single oral 100 mg/kg 14C-3APS

- Tmax [1]: 0.25 h
- % of total radioactivity (AUC0-∞ analyte/AUC total radioactivity) ([2]; IV, Mean): 89%
- % of total radioactivity (AUC0-∞ analyte/AUC total radioactivity) ([2]; PO, Mean): about 68%
- AUC(0-inf) ([2]; iv, Mean): 1420 µM·h
- AUC(0-inf) ([2]; iv, individual animals 1001-1004): 1530 µM·h
- AUC(0-inf) ([2]; po, Mean): 507 µM·h
- AUC(0-inf) ([2]; po, individual animals 3001-3004): 610 µM·h
- AUC0-τ [3, 11]: 26.7 µmol·min/mL
- AUC∞ [3, 11]: 27.6 µmol·min/mL
- T1/2 ([3]; Rat plasma, analyte after single oral 100 mg/kg 14C-3APS, 100 mg/kg): 6.43 h
- % of Total Radioactivity, Urine ([3]; Rat, amount excreted, single oral 100 mg/kg 14C-3APS): 59%
- Tmax [3, 12]: ~0.5 h
- half-life [3, 12]: ~6 h
- Cmax ([3]; male, Sprague-Dawley, Rat plasma, analyte (3APS or metabolite) after single oral 100 mg/kg 14C-3APS): 218 µM
- 3APS converted to 2-carboxyethanesulfonic acid [4]: More than 60%
- formation of 2-carboxyethanesulfonic acid [5]: detected
- AUC0-τ [6, 13]: 15.5 µmol·min/mL
- AUC∞ [6, 13]: 15.7 µmol·min/mL
- Tmax [6, 14]: ~0.5 h
- half-life [6, 14]: ~2 h
- Cmax ([6]; male, CD-1, analyte (3APS or metabolite) after single oral 100 mg/kg 14C-3APS): 97.7 µM
- in vitro metabolism [7]: no in vitro metabolism
- metabolism of 3APS associated with hepatic first-pass ([8]; hepatoportal versus intravenous exposure, 250 mg/kg): 24%
- bioavailability based on the AUC∞ ([8]; oral 250 mg/kg): about 38%
- metabolism of 3APS associated with intestinal first-pass ([8]; oral versus hepatoportal exposure, 250 mg/kg): 43%
- AUC0-τ [9, 13]: 24.5 µmol·min/mL
- AUC∞ [9, 13]: 25.3 µmol·min/mL
- T1/2 ([9]; analyte after single oral 100 mg/kg 14C-3APS, 100 mg/kg): 5.04 h
- Tmax [9, 15]: ~0.5 h
- half-life [9, 15]: ~5 h
- Cmax ([9]; male, Beagle, analyte (3APS or metabolite) after single oral 100 mg/kg 14C-3APS): 250 µM
- % of total radioactivity in plasma based on AUC0-τ ([10]; healthy subjects, oral 14C-3APS): approximately 48%
- % of total amount of radioactivity excreted in urine ([10]; human urine): approximately 15%
Compound: NCCCS(=O)(=O)O [Compound 3APS, 3-amino-1-propanesulfonic acid]
- AUC0-∞ ([2]; IV, individual animals 1001-1004): 1420 µM·h and 1591 µM·h and 1147 µM·h
- AUC0-∞ ([2]; PO, individual animals 3001-3004): 539 µM·h and 407 µM·h and 471 µM·h
